Source: US8741659B2, “Composition for measuring the binding affinity between nucleic acid and test substance, and use thereof” (Osaka University, priority 2007, dated 2014)

Experiments:
[1] = system: RNAs of FIG. 2 (SEQ ID NOs: 1 through 3), with or without bulge structure; assay: Evaluation of binding between xanthone fluorescent molecule and RNA (fluorescence before and after mixing RNA); conditions: 10 μM compound, 30 μM RNA (A, U, C, G bulge or no bulge), cacodylate buffer pH 7.0, NaCl 100 mM
Protocol: Next, binding between X2S and RNAs was evaluated. The RNAs used in the present example had the structure illustrated in FIG. 2. FIG. 2 is a diagram schematically illustrating the structure of the RNAs used in the present example. The RNAs used in the present example had sequences shown in SEQ ID NOs: 1 through 3.
The symbol N in FIG. 2 represents either a base out of A, U, C, and G, or no base. Thus, in a case where a particular RNA as in FIG. 2 has N representing a base out of A, U, C, and G, the RNA is an RNA formed by hybridization of an RNA having the base sequence shown in SEQ ID NO: 1 with a single strand RNA having the base sequence shown in SEQ ID NO: 2. On the other hand, in a case where a particular RNA as in FIG. 2 has N representing no base, the RNA is an RNA formed by hybridization of an RNA having the base sequence shown in SEQ ID NO: 1 with an RNA having the base sequence shown in SEQ ID NO: 3.
This also applies to other bases. The RNAs used in the present example were purchased from Hokkaido System Science Co., Ltd.
Firstly, X2S was mixed in a cacodylate buffer solution (sodium cacodylate: 10 mM, pH 7.0; NaCl: 100 mM) at 10 μM, so that an X2S solution was obtained. The X2S solution was irradiated with light having an absorption maximum of 371±3 nm, and a fluorescence intensity was then measured. The fluorescence intensity was measured with use of a device (product number: RF-5300PC) available from Shimadzu Corporation. For each type of the RNAs, the fluorescence intensity was measured after the RNA was mixed in the X2S solution at 30 μM.
FIGS. 3 and 4 compare the fluorescence intensities measured before and after the RNA was mixed. […] The horizontal axis represents the fluorescence wavelength, whereas the vertical axis represents the fluorescence intensity. FIG. 4 is an enlarged graph corresponding to the fluorescence intensity of 5 A.U. in FIG. 3 and its vicinity.
Binding between X1S and RNAs was evaluated by a method identical to the method described in Example 2, except that X1S was used instead of X2S. […]

RRE = assay: Fluorescence titration / evaluation of binding with RRE; set-up: species or system HIV-1
Protocol: In this Example, binding between RRE and X2S was evaluated by a method identical to the method in Example 2.
The […] of RRE is shown in SEQ ID NO: 8. […] RRE was purchased from Hokkaido System Science Co., Ltd.
Firstly, the X2S solution obtained in Example 1 was diluted with a cacodylate buffer solution (sodium cacodylate: 10 mM, pH 7.0; NaCl: 100 mM), so that a concentration of X2S became 2 μM. To the 2-μM X2S solution thus obtained, RRE was added in steps at 0 μM, 1 μM, 2 μM, 3 μM, 4 μM, 5 μM, 6 μM, and 8 μM. Further, a fluorescence intensity of the 2-μM X2S solution was measured at each concentration. The fluorescence intensity was measured in the same manner as in Example 2.
FIG. 7 is a view illustrating a result of evaluation of binding between X2S and RRE. In FIG. 7, the horizontal axis represents the fluorescence wavelength, whereas the vertical axis represents the fluorescence intensity. […] Other figures include such arrows for results of measurements of fluorescence intensities.
FIG. 8 is a view plotting the fluorescence intensities at a measured wavelength of 453 nm shown in the result illustrated in FIG. 7. The horizontal axis represents the concentration of RRE, whereas the vertical axis represents the fluorescence intensity.
Then, changes in fluorescence intensities were observed.
Firstly, X2S, X2S(3), X2S(4), X2S(5), X2S(2-Me), and 3,6-X2S(2) were respectively mixed with cacodylate buffer solutions (sodium cacodylate: 10 mM, pH 7.0; NaCl: 100 mM) each at 1.0 μM, so that solutions of the respective compounds were obtained. RRE used in this Example was the same as that used in Example 4. RRE was added to each of the solutions of the respective compounds in steps at 0.0 μM, 0.2 μM, 0.4 μM, 0.8 μM, and 1.0 μM.
Each of the solutions to which RRE was added was irradiated with light, and a fluorescence intensity was measured. A device used for measuring the fluorescence intensity was the same as that used in Example 13. A variation in a slit width was also the same as that in Example 14.
FIG. 39 is a graph illustrating a relationship between a concentration of RRE added and a fluorescence intensity of each compound. Further, FIG. 39 is also a view plotting the fluorescence intensities of the respective fluorescence peaks shown in the results illustrated in FIGS. 33 to 38. FIG. 40 is a view plotting residual fluorescence intensities (%) which were obtained based on the results shown in FIGS. 33 to 38, assuming that the fluorescence intensities of the respective fluorescence peaks observed at a concentration of 0.0 μM of RRE were 100%. In each of FIGS. 39 and 40, the horizontal axis represents the concentration of the RNA. In FIG. 39, the vertical axis represents the fluorescence intensity. In FIG. 40, the vertical axis represents the residual fluorescence intensity (%).
FIG. 41 is a view plotting values obtained by dividing (i) the residual fluorescence intensities (%) obtained in the case involving use of the double strand RNA by (ii) the residual fluorescence intensities (%) obtained in the case involving use of RRE. That is, FIG. 41 is a view plotting values obtained by dividing (i) the residual fluorescence intensity (%) shown in FIG. 32 by (ii) the residual fluorescence intensities (%) shown in FIG. 40. FIG. 42 is a view plotting values obtained by subtracting (i) the residual fluorescence intensities (%) obtained in the case involving use of RRE from (ii) the residual fluorescence intensities (%) obtained in the case involving use of the double strand RNA. That is, FIG. 42 is a view plotting values obtained by subtracting (i) the residual fluorescence intensities (%) shown in FIG. 40 from (ii) the residual fluorescence intensities (%) shown in FIG. 32.
In this Example, 1-Pyrenemethanamide, hydrochloride was caused to bind to a double strand RNA or RRE. Then, a change in a fluorescence intensity was observed. […]

With `NCCOc1ccc2oc3ccc(OCCN)cc3c(=O)c2c1` [X2S, 2,7-bis(2-aminoethoxy)xanthen-9-one] the “binding to RNAs” value [1] was “capable of binding to RNAs having various structures”, the “reduction of fluorescence intensity (residual fluorescence intensity) on binding RRE” value (RRE; 1.0 μM compound, RRE 0.0-1.0 μM) was “particularly high reduction rates” and the “fluorescence of X2S on binding to RRE” value (RRE; 2 μM X2S, RRE 0-8 μM, 453 nm) was “fluorescence of X2S is quenched”. The “difference in quenching efficiency between RRE and double strand RNA” value (RRE; FIGS. 41 and 42, 1.0 μM compound) was “greatest”.
